Data taken from publication doi:10.1101/577908v1, “Host metabolic reprogramming of Pseudomonas aeruginosa by phage-based quorum sensing modulation” (biorxiv, 2019).

Assays:
[1] = target: T1, Qst (Pseudomonas phage LUZ19, UniProt A9J759); test: DTNB end-point assay of CoA release; 1H-NMR; type: biochemical; details: 1 mM acetyl-CoA, 2 mM 3-methyl-2-oxobutanoic acid, MgCl2, pH 7.5, 37 °C
T1 construct: gene gp4; His-tagged (pEXP5-CT/TOPO), expressed in E. coli BL21(DE3), HisTrap purified; predicted 13 kDa
T1 sequence (A9J759 1-122): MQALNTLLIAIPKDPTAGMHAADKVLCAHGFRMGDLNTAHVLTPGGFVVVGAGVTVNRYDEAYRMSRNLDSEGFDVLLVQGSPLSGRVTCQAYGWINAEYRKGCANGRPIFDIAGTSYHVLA

[2] = target: T2, PA1217 (Pseudomonas aeruginosa, UniProt Q9I4C1); test: DTNB end-point assay of CoA release; 1H-NMR; type: biochemical; details: 1 mM acetyl-CoA, 2 mM 3-methyl-2-oxobutanoic acid, MgCl2, pH 7.5, 37 °C
T2 construct: full-length, GST-tagged (pGEX-6P-1), expressed in E. coli BL21(DE3), GSTrap purified; tag removal not mentioned
T2 sequence (Q9I4C1 1-455): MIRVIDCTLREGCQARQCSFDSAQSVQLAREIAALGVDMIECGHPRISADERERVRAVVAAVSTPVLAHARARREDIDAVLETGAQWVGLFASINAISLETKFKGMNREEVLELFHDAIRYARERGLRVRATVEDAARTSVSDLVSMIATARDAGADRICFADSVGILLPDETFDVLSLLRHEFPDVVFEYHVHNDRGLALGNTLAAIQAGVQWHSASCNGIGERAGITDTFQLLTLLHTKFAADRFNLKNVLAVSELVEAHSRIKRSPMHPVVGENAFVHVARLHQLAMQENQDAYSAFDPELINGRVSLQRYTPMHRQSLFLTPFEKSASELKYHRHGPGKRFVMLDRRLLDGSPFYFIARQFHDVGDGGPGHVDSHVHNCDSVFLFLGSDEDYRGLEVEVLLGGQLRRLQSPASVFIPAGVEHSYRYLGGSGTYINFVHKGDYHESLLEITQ

CC(=O)SCCNC(=O)CCNC(=O)[C@H](O)C(C)(C)COP(=O)(O)OP(=O)(O)OC[C@H]1O[C@@H](n2cnc3c(N)ncnc32)[C@H](O)[C@@H]1OP(=O)(O)O [acetyl-CoA]
DTNB end-point assay of CoA release; 1H-NMR [1]: Qst was also able to consume acetyl-CoA | DTNB end-point assay of CoA release; 1H-NMR [2]: products were only formed by LeuA, while PA1217 merely consumed acetyl-CoA
